Laboratory results reported in US20210060093A1, “COMBINATION THERAPY FOR TREATING OR PREVENTING CANCER” (4D Pharma Research Limited, priority 2018, published 2021).

Key:
RENCA tumour cells = experiment: Antitumor activity, RENCA model; format: in vivo, mouse; settings: D18 and D22, compared to untreated and vehicle groups, FIG. 3B
Description: Treatment schedule—The start of first dosing was considered as D0. On D0, non-engrafted mice were randomized according to their individual body weight into groups of 9 mice using Vivo manager® software (Biosystemes, Couternon, France). On D0, the mice received vehicle (culture medium) or bacterial strain (2×10^8 in 200 μL, PO). On D14, all mice were engrafted with RENCA tumour cells injected SC into the ventral surface of the lower flank as described below. Treatment with anti-CTLA-4 (10 mg/kg, IP) and anti-PDL1 (clone 10F.9G2, 10 mg/kg) was initiated when tumours reached a volume of 50-70 mm3.
Orthotopic induction of RENCA tumor cells in animals by SC injection—On D14, one million (1×10^6) RENCA tumor cells in 50 μL RPMI 1640 medium were transplanted via SC injection into the ventral surface of the lower flank of mice.
Euthanasia—Each mouse was euthanized when it reached a humane endpoint as described in section below, or after a maximum of 6 weeks post start of dosing.
Evaluation of tumour burden at euthanasia—At the time of termination, tumours were collected and their volume evaluated.
Clinical monitoring—The length and width of the tumour was measured twice a week with callipers and the volume of the tumour was estimated by this formula [52]: […]

immature dendritic cells = experiment: Cytokine production in immature dendritic cells; format: cell-based; settings: MRX518 10^7/ml, LPS 100 ng/ml, FIGS. 4b, 4d
Description: A monocyte population was isolated from peripheral blood mononuclear cells (PBMCs). The monocyte cells were subsequently differentiated into immature dendritic cells. The immature dendritic cells were plated out at 200,000 cells/well and incubated with MRX518 at a final concentration of 10^7/ml, with the optional addition of LPS at a final concentration of 100 ng/ml. The negative control involved incubating the cells with RPMI media alone and positive controls incubated the cells with LPS at a final concentration of 100 ng/ml. The cytokine content of the cells was then analysed.

Compound | reduction in tumour size (RENCA tumour cells) | level of IL-1β (immature dendritic cells)
CC(=O)O[C@H]1C(=O)[C@@]2(C)[C@H]([C@H](OC(=O)c3ccccc3)[C@]3(O)C[C@H](OC(=O)[C@H](O)[C@@H](NC(=O)c4ccccc4)c4ccccc4)C(C)=C1C3(C)C)[C@]1(OC(C)=O)CO[C@@H]1C[C@@H]2O [Paclitaxel] | (almost) complete reduction in tumour size | –
lipopolysaccharide [LPS] | – | but not IL-1β
